From US20250212875A1, “PESTICIDAL AND HERBICIDAL COMPOUNDS AND METHODS OF USE THEREOF” (AG PLENUS LTD, priority 2022, published 2025)

How the values were obtained:
[1] = tested on: monocot and eudicot weeds species; assay: LTP weed panel, summary in words; assay type: in vivo; settings: for growth inhibition (in words): mainly in pre-emergence applications
Lolium multiflorum [2] = assay: LTP post-emergence greenhouse screen
Procedure: (§4) A basic panel of eight weed species (Table 3) sowed in 4×4×7 cm plastic pots containing a garden mix (klasmann). Each specie was sowed in a separate pot. In each pot, 10-15 seeds were sowed according to the specie viability. Timing of application determined at a 1-2 true leaf stage. The plants grew for 30 days in a controlled greenhouse (26±2° C. day, 20±2° C. night). Flood irrigation (tap water+Shefer 5:3:8 8 mM) was given at a 50% water content by weight. Two days before application, the tested plants thinned down to three plants per pot. Compounds were soluble in water (DDW), and commercial herbicide control was soluble in formulation B (Table 4). Before application, 1% (v/v) crop oil and 0.02% (v/v) surfactant (Tergitol™ 15-S-7) were added to the solution. […] Plants were evaluated at 3 time points (4, 8, 12 days after application (DAA)). At each time point, visual phenotyping was recorded using a scale of 0-6 (0: no visible effect, 6: maximum effect). […]
(§5) All experiments included an untreated control, a solvent control, and a positive control (commercial herbicide A.I.). Statistical analysis for visual phenotyping determined by a median value of ≥3.5 and Fisher test (pval≤0.05). Statistical analysis for dry weight determined by % inhibition ≥50 and T test (pval≤0.05), as well as Wilcox test (pval≤0.05).

Setaria viridis = assay: LTP post-emergence greenhouse screen
Procedure: (§6) A basic panel of eight weed species (Table 3) sowed in 4×4×7 cm plastic pots containing a garden mix (klasmann). Each specie was sowed in a separate pot. In each pot, 10-15 seeds were sowed according to the specie viability. Timing of application determined at a 1-2 true leaf stage. The plants grew for 30 days in a controlled greenhouse (26±2° C. day, 20±2° C. night). Flood irrigation (tap water+Shefer 5:3:8 8 mM) was given at a 50% water content by weight. Two days before application, the tested plants thinned down to three plants per pot. Compounds were soluble in water (DDW), and commercial herbicide control was soluble in formulation B (Table 4). Before application, 1% (v/v) crop oil and 0.02% (v/v) surfactant (Tergitol™ 15-S-7) were added to the solution. Application was conducted with an industrial sprayer (TeeJet 6502E nozzle) at a rate of 2 kg/ha and spray volume of 4801/ha. Plants were evaluated at 3 time points (4, 8, 12 days after application (DAA)). At each time point, visual phenotyping was recorded using a scale of 0-6 (0: no visible effect, 6: maximum effect). At 12 DAA, plants foliage was harvested, dried and weighed for dry weight analysis.
(§7) Post-emergence advanced wide panel experiment included 24 weed species (Table 5). Application was conducted at 2 rates of 2 kg/ha and 0.25 kg/ha and spray volume of 480 l/ha. Visual phenotyping was recorded at 4, 11, 17 and 20 DAA using a scale of 0-6 (0: no visible effect, 6: maximum effect). At 21 DAA, plants foliage was harvested, dried, and weighed for dry weight analysis. All experiments included an untreated control, a solvent control, and a positive control (commercial herbicide A.I.). Statistical analysis for visual phenotyping determined by a median value of ≥3.5 and Fisher test (pval≤0.05). Statistical analysis for dry weight determined by % inhibition ≥50 and T test (pval≤0.05), as well as Wilcox test (pval≤0.05).

Echinochloa colona [3] = assay: LTP post-emergence greenhouse screen
Procedure: as §6, §7

Arabidopsis thaliana = assay: HTPS post-emergence on miniature dicot model plants; assay type: in vivo; settings: green area (RGB), maximal concentration 1.5 kg/ha, read-out: Max inhibition (%)
Procedure: Arabidopsis thaliana seeds were sown in 96 well plates filled with irrigated Sweet sand (10%>clay) that is washed from salts and minerals using tap water. 5-10 seeds were sown in the center of each well. 7-8 days post sowing, at 2 true leaves stage, thinning out was performed to ensure that compound application is done on a single plant per well. The plates were placed in a controlled greenhouse in a random order inside a bath which allows flooding irrigation with tap water supplemented with a fertilizer. Applied compounds were dissolved into a final solution of 50% acetone, 49.9% DDW, 0.1% tween-20. A 96 well plate was used as a stock plate for preparing application solutions for 8 repeats. Each row contained different concentrations per chemical. Maximal concentration for application was 1.5 kg/ha and dilution factor is 2.5. Chemical application was performed one day after thinning out in a chemical hood. 5 μL applied on first two true leaves in each well using 12 channel pipettes. Data collection: RGB (red, green, blue) data for green area per well was documented using camera. Data is collected at a few time points during the experiment: one day after thinning and before chemical application, two-, six- or nine-days post application. During the last two documentations, visual phenotyping was performed. Data analysis: Given RGB results and visual phenotype scores, a student t-test conducted to compare between treatment and control performance for continuous data (RGB) and Fisher exact test to analyze the non-continuous data (phenotypic scores). Dose-Response curves are generated for each treatment to infer ED50 and max. inhibition parameters, using treatment's log concentration range as the […] variable and normalized green area. Plate imaging performed at 11 and 18 DAA. RGB data for green area per well was documented and used to extract % inhibition. Dose-Response curves were built for each treatment to infer EC50, EC75 and EC90 parameters, using treatment's log concentration range as the independent variable and normalized green area as the dependent variable. Treatments were compared to controls performance given RGB results and using student's t-test (p-val≤0.05). Compounds 101, 110, 112, 119, 124, 125, 146, 154, 157, 172, 170, 169, 112, and 166 were applied in either or both pre- and post-emergence mode to either or both monocot and dicot model plants, following the methods described above. The compounds were applied as a gradient of concentrations as listed above, from which the ED50 was calculated.

Poa annua [4] = assay: LTP pre-emergence greenhouse screen; assay type: in vivo
Procedure: (§1) Sowing was performed one day before application.
(§2) Percentage of emergence was evaluated at 15 DAA.

Echinochloa crus-galli [5] = assay: LTP pre-emergence greenhouse screen; assay type: in vivo
Procedure: as §1, §2

Phalaris paradoxa = assay: LTP pre-emergence greenhouse screen; assay type: in vivo
Procedure: as §1, §2

Digitaria sanguinalis [6] = assay: LTP pre-emergence greenhouse screen; assay type: in vivo
Procedure: as §1, §2

Echinochloa colona [7] = assay: LTP pre-emergence greenhouse screen; assay type: in vivo
Procedure: as §1, §2

Lolium multiflorum [8] = assay: LTP pre-emergence greenhouse screen; assay type: in vivo
Procedure: as §1, §2

Alopecurus myosuroides = assay: LTP pre-emergence greenhouse screen; assay type: in vivo
Procedure: as §1, §2

Lolium perenne [9] = assay: LTP pre-emergence greenhouse screen; assay type: in vivo
Procedure: as §1, §2

Lolium perenne [10] = assay: LTP post-emergence greenhouse screen
Procedure: as §4, §5

Poa annua [11] = assay: LTP post-emergence greenhouse screen
Procedure: as §6, §7

Alopecurus monureide's = assay: LTP post-emergence greenhouse screen
Procedure: as §6, §7

Digitaria sanguinalis [12] = assay: LTP post-emergence greenhouse screen
Procedure: as §6, §7

[13] = tested on: monocot and dicot model plants; assay: HTPS model plants, summary in words; assay type: in vivo; settings: HTPS systems where they were tested
Procedure: Arabidopsis thaliana seeds were sown in 96 well plates filled with irrigated Sweet sand (10%>clay) that is washed from salts and minerals using tap water. 5-10 seeds were sown in the center of each well. 7-8 days post sowing, at 2 true leaves stage, thinning out was performed to ensure that compound application is done on a single plant per well. The plates were placed in a controlled greenhouse in a random order inside a bath which allows flooding irrigation with tap water supplemented with a fertilizer. Applied compounds were dissolved into a final solution of 50% acetone, 49.9% DDW, 0.1% tween-20.
A 96 well plate was used as a stock plate for preparing application solutions for 8 repeats. Each row contained different concentrations per chemical. Maximal concentration for application was 1.5 kg/ha and dilution factor is 2.5. Chemical application was performed one day after thinning out in a chemical hood. 5 μL applied on first two true leaves in each well using 12 channel pipettes. […]
(§3) Compounds 101, 110, 112, 119, 124, 125, 146, 154, 157, 172, 170, 169, 112, and 166 were applied in either or both pre- and post-emergence mode to either or both monocot and dicot model plants, following the methods described above. The compounds were applied as a gradient of concentrations as listed above, from which the ED50 was calculated.

Echinochloa crus-galli [14] = assay: LTP post-emergence greenhouse screen
Procedure: as §6, §5

Matricaria chamomilla = assay: LTP pre-emergence greenhouse screen; assay type: in vivo
Procedure: as §1, §2

Amaranthus palmeri [15] = assay: LTP pre-emergence greenhouse screen; assay type: in vivo
Procedure: as §1, §2

Galium aparine = assay: LTP post-emergence greenhouse screen
Procedure: as §4, §5

Amaranthus tuberculatus = assay: LTP post-emergence greenhouse screen; assay type: in vivo
Amaranthus palmeri [16] = assay: LTP post-emergence greenhouse screen
Procedure: as §4, §5

Eragrostis teff = assay: HTPS pre-emergence on monocot model plants; assay type: in vivo; settings: green area (RGB)
Procedure: A 96 well plate was used as a stock plate for preparing application solutions for 8 repeats. Each row contained different concentrations per chemical. Maximal concentration for application was 1.5 kg/ha and dilution factor is 2.5. Chemical application was performed one day after thinning out in a chemical hood. 5 μL applied on first two true leaves in each well using 12 channel pipettes. Data collection: RGB (red, green, blue) data for green area per well was documented using camera. Data is collected at a few time points during the experiment: one day after thinning and before chemical application, two-, six- or nine-days post application. During the last two documentations, visual phenotyping was performed. Data analysis: Given RGB results and visual phenotype scores, a student t-test conducted to compare between treatment and control performance for continuous data (RGB) and Fisher exact test to analyze the non-continuous data (phenotypic scores). Dose-Response curves are generated for each treatment to infer ED50 and max. inhibition parameters, using treatment's log concentration range as the […] variable and normalized green area.
These experiments are conducted similarly except that either Arabidopsis thaliana or Eragrostis teff seeds were sowed (5-10 or 5-7, respectively), plant thinning out was not performed, compound dissolved into a final solution of 50% acetone, 49.9% DDW, compound application was done at 30 μL volume per well directly on sowed soil before plant emergence and data was collected 10 or 7 days after chemical application on dicot or monocot plants, respectively.
Plate imaging performed at 11 and 18 DAA. RGB data for green area per well was documented and used to extract % inhibition. […]
as §3

Amaranthus retroflexus = assay: LTP pre-emergence greenhouse screen; assay type: in vivo
Procedure: as §1, §2

Compound: CC(O)C(N)C/C=C/CC(=O)O (stereo not shown) [Compound 101]
- control of weeds (in words) ([1]; monocot and eudicot weeds species, post-emergence and pre-emergence, most of the species tested): excellent control
- Drd: disturbed root growth (Lolium multiflorum [2]): Drd (60)
- DAB: disturbed apical bud (Setaria viridis): IG (60), DAB (60)
- IG: inhibited growth (Setaria viridis): IG (60), DAB (60)
- DAB: disturbed apical bud (Echinochloa colona [3]): 60
- Drd: disturbed root growth (Echinochloa colona [3]): Drd (80)
- IG: inhibited growth (Echinochloa colona [3]): 80
- inhibition at up to 1500 g/ha (Arabidopsis thaliana): 100%
- IG: inhibited growth (Poa annua [4]): IG (100)
- IG: inhibited growth (Echinochloa crus-galli [5]): IG (100)
- IG: inhibited growth (Phalaris paradoxa): IG (80)
- IG: inhibited growth (Digitaria sanguinalis [6]): IG (100)
- IG: inhibited growth (Echinochloa colona [7]): IG (100)
- IG: inhibited growth (Lolium multiflorum [8]): IG (100)
- IG: inhibited growth (Alopecurus myosuroides): IG (80)
- IG: inhibited growth (Lolium perenne [9]): IG (80)
- Drd: disturbed root growth (Lolium perenne [10]): 80
- IG: inhibited growth (Lolium perenne [10]): 60
- Drd: disturbed root growth (Poa annua [11]): IG (80), Drd (80)
- IG: inhibited growth (Poa annua [11]): IG (80), Drd (80)
- Bl: bleaching (Alopecurus monureide's): 60
- DAB: disturbed apical bud (Alopecurus monureide's): IG (80), DAB (80),
- Drd: disturbed root growth (Alopecurus monureide's): 80
- IG: inhibited growth (Alopecurus monureide's): IG (80), DAB (80),
- DAB: disturbed apical bud (Digitaria sanguinalis [12]): IG (80), DAB (80),
- Drd: disturbed root growth (Digitaria sanguinalis [12]): Drd (80)
- IG: inhibited growth (Digitaria sanguinalis [12]): IG (80), DAB (80),
- control (in words) [13]: excellent to very good control
- DAB: disturbed apical bud (Echinochloa crus-galli [14]): 60
- Drd: disturbed root growth (Echinochloa crus-galli [14]): Drd (80)
- IG: inhibited growth (Echinochloa crus-galli [14]): 80

Compound: C[C@@H](O)[C@@H](N)/C=C/C=C/C(=O)O [Compound 110]
- activity on dicots and monocots (in words) ([1]; applied pre-emergence): good to moderate activity
- inhibition at up to 1500 g/ha (Arabidopsis thaliana): 100%
- IG: inhibited growth (Poa annua [4]): IG (60)
- IG: inhibited growth (Matricaria chamomilla): IG (60)
- IG: inhibited growth (Amaranthus palmeri [15]): IG (80)
- Bl: bleaching (Galium aparine): Bl (60)
- control (in words) [13]: excellent to very good control
- Drd: disturbed root growth (Amaranthus tuberculatus): Drd (80)

Compound: NC1CCC/C(=C\CCC(=O)O)C1 (stereo not shown) [Compound 119]
- growth inhibition (in words) [1]: very good to moderate growth inhibition
- inhibition at up to 1500 g/ha (Arabidopsis thaliana): 100%
- IG: inhibited growth (Amaranthus palmeri [15]): IG (80)
- IG: inhibited growth (Echinochloa colona [7]): IG (60)

Compound: NC1CCCC(/C=C/CC(=O)O)C1 (stereo not shown) [Compound 124]
- growth inhibition (in words) [1]: very good to moderate growth inhibition
- inhibition at up to 1500 g/ha (Arabidopsis thaliana): 100%
- IG: inhibited growth (Poa annua [4]): IG (100)
- IG: inhibited growth (Amaranthus palmeri [15]): IG (80)
- IG: inhibited growth (Echinochloa colona [7]): IG (100)
- IG: inhibited growth (Alopecurus myosuroides): IG (80)

Compound: NC1(C/C=C/CC(=O)O)CCC1 [Compound 125]
- growth inhibition (in words) [1]: very good to moderate growth inhibition
- IG: inhibited growth (Setaria viridis): IG (60)
- IG: inhibited growth (Amaranthus palmeri [16]): IG (60)
- inhibition at up to 1500 g/ha (Arabidopsis thaliana): 100%
- IG: inhibited growth (Poa annua [4]): IG (100)
- IG: inhibited growth (Matricaria chamomilla): IG (60)
- IG: inhibited growth (Amaranthus palmeri [15]): IG (80)
- IG: inhibited growth (Alopecurus myosuroides): IG (60)
- IG: inhibited growth (Lolium perenne [9]): IG (80)
- IG: inhibited growth (Poa annua [11]): IG (60)

Compound: NC(C/C=C/CC(=O)O)C1CC1 (stereo not shown) [Compound 146]
- growth inhibition (in words) [1]: very good to moderate growth inhibition
- inhibition at up to 1500 g/ha (Arabidopsis thaliana): 100%
- IG: inhibited growth (Poa annua [4]): IG (60)
- IG: inhibited growth (Amaranthus palmeri [15]): IG (80)
- IG: inhibited growth (Alopecurus myosuroides): IG (60)
- Max inhibition (%) (Eragrostis teff): 100%

Compound: NC1CCCC(C#CCC(=O)O)C1 (stereo not shown) [Compound 154]
- growth inhibition (in words) [1]: very good to moderate growth inhibition
- inhibition at up to 1500 g/ha (Arabidopsis thaliana): 100%
- IG: inhibited growth (Poa annua [4]): IG (100)
- IG: inhibited growth (Amaranthus palmeri [15]): IG (80)
- IG: inhibited growth (Echinochloa colona [7]): IG (100)
- IG: inhibited growth (Alopecurus myosuroides): IG (80)

Compound: CC(C)C(N)C/C=C/CC(=O)O (stereo not shown) [Compound 157]
- inhibition at up to 1500 g/ha (Arabidopsis thaliana): 100%

Compound: CCCC(N)C/C=C/CC(=O)O (stereo not shown) [Compound 166]
- inhibition at up to 1500 g/ha (Arabidopsis thaliana): 75%
- Max inhibition (%) (Eragrostis teff): 47%

Compound: CC(N)CC/C=C/CC(=O)O (stereo not shown) [Compound 169]
- inhibition at up to 1500 g/ha (Arabidopsis thaliana): 100%
- IG: inhibited growth (Amaranthus retroflexus): IG (80)

Compound: CC(N)CCC/C=C/C(=O)O (stereo not shown) [Compound 170]
- inhibition at up to 1500 g/ha (Arabidopsis thaliana): 100%
- IG: inhibited growth (Amaranthus retroflexus): IG (90)

Compound: CC(O)C(N)/C=C/CCC(=O)O (stereo not shown) [Compound 172]
- inhibition at up to 1500 g/ha (Arabidopsis thaliana): 100%
